Experimental data as given in the supplement of paper PMC13380429.
Counter-ions that a name gives are not always drawn.

Columns and labels:
[1] = tested on: A549-ACE2 infected with SARS-CoV-2; test: morphology score (similarity to uninfected cells); higher = more like uninfected cells; details: 24 h
[2] = tested on: Vero E6; test: relative viability EC50 (midpoint between 100% and the lowest measured viability); higher = less toxic; details: 72 h
[3] = tested on: Calu-3; test: as above; details: 72 h
[4] = tested on: A549-ACE2 infected with SARS-CoV-2; test: cell count relative to DMSO; higher = less toxic; details: 24 h
[5] = tested on: A549-ACE2 infected with SARS-CoV-2; test: SARS-CoV-2 infection rate relative to DMSO; higher = more infection; details: 24 h
[6] = tested on: Vero E6; test: drug sensitivity score (DSS) for viability; higher = more toxic; extreme values may be limits of the assay; details: 72 h
[7] = tested on: U2OS; test: as above; details: 72 h
[8] = tested on: HepG2; test: as above; details: 72 h
[9] = tested on: Calu-3; test: as above; details: 72 h
[10] = tested on: Vero E6; test: cell viability relative to DMSO; higher = less toxic; details: 72 h
[11] = tested on: U2OS; test: as above; details: 72 h
[12] = tested on: HepG2; test: as above; details: 72 h
[13] = tested on: Calu-3; test: as above; details: 72 h
[14] = tested on: A549-ACE2; test: drug-induced phospholipidosis relative to tamoxifen; higher = more phospholipidosis
[15] = tested on: HepG2; test: relative viability EC50 (midpoint between 100% and the lowest measured viability); higher = less toxic; details: 72 h
[16] = tested on: Caco-2; test: drug sensitivity score (DSS) for viability; higher = more toxic; extreme values may be limits of the assay; details: 72 h
[17] = tested on: A549-ACE2; test: phospholipidosis EC50; higher = less potent phospholipidosis inducer
[18] = tested on: Caco-2; test: cell viability relative to DMSO; higher = less toxic; details: 72 h
[19] = tested on: U2OS; test: relative viability EC50 (midpoint between 100% and the lowest measured viability); higher = less toxic; details: 72 h
[20] = tested on: Caco-2; test: as above; details: 72 h

COc1ccc(C(=O)/C(Cc2cc(OC)c(OC)c(OC)c2)=C(\C(=O)O)c2ccc3c(c2)OCO3)cc1
Details	SARS-CoV-2 infection rate, [5] [%]	cell count, [4] [%]	cell viability, [10] [%]	cell viability, [11] [%]	cell viability, [12] [%]	cell viability, [13] [%]	morphology score, [1]
1 nM	–	–	97.1	98.9	102	91.9	–
10 nM	–	–	101	94.9	93.9	87.6	–
100 nM	–	–	104	97.7	95.3	101	–
0.3 µM	101	98	–	–	–	–	-0.18
1000 nM	–	–	109	96.2	95.2	101	–
3 µM	95	104	–	–	–	–	0.12
10 µM	42	82	–	–	–	–	0.6
10000 nM	–	–	104	57.6	65.2	94.1	–
30 µM	16	22	–	–	–	–	0.36

Details	drug sensitivity score	relative viability EC50 [nM]
[2]	–	> 10000
[3]	–	> 10000
[6]	0	–
[7]	2.8	–
[8]	2.4	–
[9]	0	–

O=C(Nc1ncc(SCCN2CCCC2)s1)[C@]1(c2ccc(S(=O)(=O)C3CC3)cc2)C[C@H]1C1CCCCC1
Details	SARS-CoV-2 infection rate [%]	cell count [%]	cell viability [%]	morphology score	phospholipidosis EC50 [nM]
[1], 0.3 µM	–	–	–	0.2	–
[1], 3 µM	–	–	–	0.84	–
[1], 10 µM	–	–	–	0.6	–
[1], 30 µM	–	–	–	-0.07	–
[4], 0.3 µM	–	101	–	–	–
[4], 3 µM	–	115	–	–	–
[4], 10 µM	–	118	–	–	–
[4], 30 µM	–	56	–	–	–
[5], 0.3 µM	94	–	–	–	–
[5], 3 µM	27	–	–	–	–
[5], 10 µM	8	–	–	–	–
[5], 30 µM	44	–	–	–	–
[10], 1 nM	–	–	96.3	–	–
[10], 10 nM	–	–	94.6	–	–
[10], 100 nM	–	–	97.2	–	–
[10], 1000 nM	–	–	90.5	–	–
[10], 10000 nM	–	–	95.4	–	–
[11], 1 nM	–	–	99.4	–	–
[11], 10 nM	–	–	105	–	–
[11], 100 nM	–	–	104	–	–
[11], 1000 nM	–	–	102	–	–
[11], 10000 nM	–	–	74.9	–	–
[12], 1 nM	–	–	104	–	–
[12], 10 nM	–	–	99.2	–	–
[12], 100 nM	–	–	98.6	–	–
[12], 1000 nM	–	–	90.2	–	–
[12], 10000 nM	–	–	44.8	–	–
[13], 1 nM	–	–	110	–	–
[13], 10 nM	–	–	93.8	–	–
[13], 100 nM	–	–	96.4	–	–
[13], 1000 nM	–	–	103	–	–
[13], 10000 nM	–	–	14	–	–
[17], 24 h	–	–	–	–	6500
[17], 48 h	–	–	–	–	5120
[17], 72 h	–	–	–	–	5400
[18], 1 nM	–	–	101	–	–
[18], 10 nM	–	–	98.9	–	–
[18], 100 nM	–	–	98	–	–
[18], 1000 nM	–	–	102	–	–
[18], 10000 nM	–	–	69	–	–

drug-induced phospholipidosis [%], [14]
Details	0.3 µM	0.833333 µM	3.33333 µM	6.66667 µM	10 µM	30 µM
24 h	14.6	32.7	73.1	104	117	197
48 h	10.1	21.2	80.9	105	132	–
72 h	11.7	19.3	75.5	114	138	–

Details	drug sensitivity score	relative viability EC50 [nM]
[2]	–	> 10000
[3]	–	3340
[6]	0	–
[7]	0.8	–
[8]	4.6	–
[9]	4.6	–
[15]	–	1840
[16]	1.3	–

Cc1ccc(S(=O)(=O)/C=C/C#N)cc1 [BAY-11-7082]
Details	SARS-CoV-2 infection rate, [5] [%]	cell count, [4] [%]	cell viability, [10] [%]	cell viability, [11] [%]	cell viability, [12] [%]	cell viability, [13] [%]	cell viability, [18] [%]	morphology score, [1]
1 nM	–	–	95.5	97.2	94.2	104	92.8	–
10 nM	–	–	94.4	98.7	96.9	101	90.5	–
0.1 µM	106	101	–	–	–	–	–	0
100 nM	–	–	99.7	98.5	101	110	95.4	–
0.3 µM	99	98	–	–	–	–	–	-0.16
1 µM	108	95	–	–	–	–	–	-0.29
1000 nM	–	–	92.6	97.2	89.7	107	97.7	–
3 µM	107	84	–	–	–	–	–	-0.27
10000 nM	–	–	12.9	0.1	0	52.2	27	–

drug-induced phospholipidosis [%], [14]
Details	0.3 µM	0.833333 µM	3.33333 µM	6.66667 µM	10 µM
24 h	1.81	0.62	1.15	1.47	1.45
48 h	2.31	0.11	-1.24	0.67	2.43
72 h	3.69	-0.813	-2.01	-1.91	-1.18

Details	drug sensitivity score	relative viability EC50 [nM]
[2]	–	2470
[6]	6	–
[7]	5.9	–
[8]	7.2	–
[9]	2	–
[15]	–	2310
[16]	4.3	–
[19]	–	2960
[20]	–	2940

CC/C(=C(\c1ccc(O)cc1)c1ccc(OCCNC)cc1)c1ccccc1 [Endoxifen HCl]
Details	SARS-CoV-2 infection rate [%]	cell count [%]	cell viability [%]	morphology score	phospholipidosis EC50 [nM]
[1], 0.3 µM	–	–	–	0.02	–
[1], 3 µM	–	–	–	0.87	–
[1], 10 µM	–	–	–	0.84	–
[1], 30 µM	–	–	–	-0.2	–
[4], 0.3 µM	–	98	–	–	–
[4], 3 µM	–	123	–	–	–
[4], 10 µM	–	118	–	–	–
[4], 30 µM	–	25	–	–	–
[5], 0.3 µM	100	–	–	–	–
[5], 3 µM	30	–	–	–	–
[5], 10 µM	8	–	–	–	–
[5], 30 µM	86	–	–	–	–
[10], 1 nM	–	–	103	–	–
[10], 10 nM	–	–	105	–	–
[10], 100 nM	–	–	103	–	–
[10], 1000 nM	–	–	99.9	–	–
[10], 10000 nM	–	–	91.1	–	–
[12], 1 nM	–	–	110	–	–
[12], 10 nM	–	–	95.4	–	–
[12], 100 nM	–	–	103	–	–
[12], 1000 nM	–	–	105	–	–
[12], 10000 nM	–	–	36.5	–	–
[13], 1 nM	–	–	102	–	–
[13], 10 nM	–	–	94	–	–
[13], 100 nM	–	–	96.6	–	–
[13], 1000 nM	–	–	100	–	–
[13], 10000 nM	–	–	5.1	–	–
[17], 24 h	–	–	–	–	1900
[17], 48 h	–	–	–	–	3000
[17], 72 h	–	–	–	–	3100
[18], 1 nM	–	–	104	–	–
[18], 10 nM	–	–	115	–	–
[18], 100 nM	–	–	106	–	–
[18], 1000 nM	–	–	105	–	–
[18], 10000 nM	–	–	53.6	–	–

drug-induced phospholipidosis [%], [14]
Details	0.3 µM	0.833333 µM	3.33333 µM	6.66667 µM	10 µM
24 h	5.89	13.1	65.7	78.7	78.6
48 h	5.61	7.92	62.4	83.1	77.4
72 h	8.35	4.33	55.2	86.8	88.4

Details	drug sensitivity score	relative viability EC50 [nM]
[2]	–	> 10000
[3]	–	3190
[6]	0	–
[8]	3.1	–
[9]	5.3	–
[15]	–	3530
[16]	2.1	–

CC(C)C[C@@H](C=O)NC(=O)[C@H](CC(C)C)NC(=O)[C@H](CC(C)C)NC(=O)OCc1ccccc1 [MG-132]
Details	SARS-CoV-2 infection rate, [5] [%]	cell count, [4] [%]	cell viability, [10] [%]	cell viability, [11] [%]	cell viability, [12] [%]	cell viability, [13] [%]	cell viability, [18] [%]	morphology score, [1]
1 nM	–	–	93.1	99.8	102	96.6	99.9	–
10 nM	–	–	100	99.7	97	113	103	–
100 nM	–	–	104	95.7	107	102	94.5	–
0.3 µM	38	109	–	–	–	–	–	0.7
1000 nM	–	–	48.5	9.3	22.1	23	17.4	–
3 µM	9	37	–	–	–	–	–	0.33
10 µM	20	22	–	–	–	–	–	0.22
10000 nM	–	–	4.4	-0.1	-0.1	3.7	5.2	–
30 µM	30	14	–	–	–	–	–	0.18

[14], 24 h
Details	drug-induced phospholipidosis [%]
0.3 µM	21.5
0.833333 µM	10.6

Details	drug sensitivity score	relative viability EC50 [nM]
[2]	–	940
[3]	–	578
[6]	11.6	–
[7]	17	–
[8]	14.4	–
[9]	14.2	–
[15]	–	611
[16]	15.8	–
[19]	–	377
[20]	–	391
